Experimental data: patent US11358973B2, “Di(hetero)aryl macrocyclic compound for inhibiting protein kinase activity” (Shenzhen TargetRx, Inc., priority 2018, dated 2022)
Read-outs that look alike come from different tables or passages of the source.

Tests used:
TRKA kinase = TRKA kinase (Homo sapiens, UniProt P04629); assay: Biochemical kinase analysis (HTRF), TRKA; conditions: 23° C., read-out: Kinase IC50 (nM) TRK A
Procedure: (§1) Inhibition of TRKA, TRKB, TRKC kinases can be measured by HTRF ([…]) method. The reaction was performed in a 384-well plate at 23° C. with a volume of 20 μL. TRKA TRKB or TRKC kinase were mixed with pre-formulated and diluted compounds of different concentrations for ten minutes in duplicate for each concentration, wherein 11 concentrations made with a 3-fold gradient dilution from the starting concentration of 300 nM were made and the final concentration of DMSO was 2%. The corresponding substrate and ATP were added thereto, and reacted at room temperature for 20 minutes (both a negative and a positive control were set: negative control is blank control, positive control is Entrectinib). After the reaction, detection reagent was added thereto (reagent in HTRF Kinase TK kit), and after incubation at room temperature for 30 minutes, detection was carried out by PerkinElmer Envision microplate reader for determining enzyme activity in the presence of the compounds of the present disclosure at various concentrations, and the inhibitory activity of different concentrations of compounds against enzyme activity was calculated. After that, in accordance with four-factors function and Graphpad 5.0 software, inhibitory activity on enzyme activity under different concentrations of compounds was fitted and IC50 values were calculated.

TRKB kinase = TRKB kinase (Homo sapiens, UniProt Q16620); assay: Biochemical kinase analysis (HTRF), TRKB; conditions: 23° C., read-out: Kinase IC50 (nM) TRK B
TRKB kinase, sequence (Q16620 32-822): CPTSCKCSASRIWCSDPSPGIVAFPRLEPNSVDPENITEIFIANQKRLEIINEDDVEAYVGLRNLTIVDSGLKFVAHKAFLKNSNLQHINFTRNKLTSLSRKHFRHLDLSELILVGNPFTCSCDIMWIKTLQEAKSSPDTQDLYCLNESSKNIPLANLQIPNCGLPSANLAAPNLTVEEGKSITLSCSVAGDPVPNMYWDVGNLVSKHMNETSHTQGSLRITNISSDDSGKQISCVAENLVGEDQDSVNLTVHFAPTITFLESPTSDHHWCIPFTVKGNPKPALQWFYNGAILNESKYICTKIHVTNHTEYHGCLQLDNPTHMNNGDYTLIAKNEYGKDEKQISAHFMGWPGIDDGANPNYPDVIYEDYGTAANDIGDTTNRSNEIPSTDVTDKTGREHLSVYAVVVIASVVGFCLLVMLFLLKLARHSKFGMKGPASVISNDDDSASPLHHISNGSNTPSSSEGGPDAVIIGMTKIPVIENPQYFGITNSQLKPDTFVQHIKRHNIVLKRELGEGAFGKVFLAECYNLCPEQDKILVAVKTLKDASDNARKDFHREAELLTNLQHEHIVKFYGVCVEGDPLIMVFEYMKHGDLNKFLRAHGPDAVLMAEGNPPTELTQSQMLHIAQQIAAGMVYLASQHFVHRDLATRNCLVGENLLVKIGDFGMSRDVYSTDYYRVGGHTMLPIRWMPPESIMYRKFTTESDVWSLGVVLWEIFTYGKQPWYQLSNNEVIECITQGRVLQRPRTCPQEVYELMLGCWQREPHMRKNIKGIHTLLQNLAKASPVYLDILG
Procedure: as §1

TRKC kinase = TRKC kinase (Homo sapiens, UniProt Q16288); assay: Biochemical kinase analysis (HTRF), TRKC; conditions: 23° C., read-out: Kinase IC50 (nM) TRK C
TRKC kinase, sequence (Q16288 32-839): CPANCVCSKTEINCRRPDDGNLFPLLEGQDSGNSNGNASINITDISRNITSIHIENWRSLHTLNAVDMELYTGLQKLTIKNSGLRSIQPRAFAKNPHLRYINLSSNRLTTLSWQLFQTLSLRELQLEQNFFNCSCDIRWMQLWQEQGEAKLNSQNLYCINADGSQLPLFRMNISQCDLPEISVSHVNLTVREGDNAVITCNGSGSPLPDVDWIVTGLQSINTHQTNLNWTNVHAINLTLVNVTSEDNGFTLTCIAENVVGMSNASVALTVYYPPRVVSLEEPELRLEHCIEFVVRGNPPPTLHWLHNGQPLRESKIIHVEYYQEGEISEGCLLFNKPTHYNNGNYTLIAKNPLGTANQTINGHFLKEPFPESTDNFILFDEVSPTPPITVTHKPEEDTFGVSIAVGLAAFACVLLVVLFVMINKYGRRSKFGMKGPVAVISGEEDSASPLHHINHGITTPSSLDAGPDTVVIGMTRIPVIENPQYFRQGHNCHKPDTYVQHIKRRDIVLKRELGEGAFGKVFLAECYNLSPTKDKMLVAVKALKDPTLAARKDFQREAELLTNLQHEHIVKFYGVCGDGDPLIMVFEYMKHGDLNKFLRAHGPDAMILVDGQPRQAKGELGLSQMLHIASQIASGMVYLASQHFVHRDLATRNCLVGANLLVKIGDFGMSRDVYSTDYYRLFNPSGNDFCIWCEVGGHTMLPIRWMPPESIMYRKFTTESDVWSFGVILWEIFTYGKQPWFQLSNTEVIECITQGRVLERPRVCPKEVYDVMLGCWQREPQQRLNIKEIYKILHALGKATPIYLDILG
Procedure: as §1

KM12 cell line = assay: KM12 cell proliferation analysis (CellTiter-Glo); type: cell-based; conditions: Homo sapiens, 72 h
Procedure: The CGT method was used to detect the in vitro anti-proliferative activity of the compounds of the present disclosure on tumor cells cultured in vitro. The KM12 cell line was maintained in RPMI-1640 medium containing 10% fetal bovine serum and antibiotics, the cells in the logarithmic growth phase were harvested and planted in a 96-well plate. The plate was incubated in an incubator at 37° C., containing 5% carbon dioxide gas overnight. After the test compounds were dissolved in DMSO, a 3-fold concentration gradient dilution with 9 compound concentrations was made. Pre-prepared compounds of different concentrations were transferred to the cell plate in triplicate for each concentration, and continue culturing for 72 h. The final concentration of DMSO in the system was 0.1%, and the initial concentration of the test compound was 300 nM.
CellTiter-Glo reagent was added to the cell plate, and incubated at room temperature for 30 minutes to stabilize the optical signal. Detection was carried out by PerkinElmer Envision microplate reader for determining the inhibitory activity of the compound of the present disclosure at various concentrations on cell proliferation. The inhibitory activity of compounds at different concentrations on cell proliferation was fitted according to Graphpad 5.0 software, and IC50 values were calculated.

[1] = Pharmacokinetic experiment in rats; type: in vivo, Sprague-Dawley rats; parameters: Cl_pred (L/kg): unit not given here; conditions: rat; for AUC(0-inf): read-out: AUCINF_pred; for MRT inf: read-out: MRTINF_pred
Procedure: 6 male Sprague-Dawley rats (7-8 weeks old, and weighing approximately 210 g) were divided into 2 groups with 3 rats in each group. The rats were intravenously or orally administered a single dose of compounds (3 mg/kg intravenously, 10 mg/kg orally) to compare pharmacokinetic differences.
The rats were feeded on standard food and water. Fasting was started 16 hours before the test. The drug was dissolved in PEG400 and dimethyl sulfoxide. The blood samples were collected from eyelids at the time points of 0.083 hour, 0.25 hour, 0.5 hour, 1 hour, 2 hours, 4 hours, 6 hours, 8 hours, 12 hours, and 24 hours after administration.
Rats were briefly anesthetized after inhalation of diethyl ether and 300 μL of blood sample was collected from the eyelids into test tubes. There was 30 μL of 1% heparin salt solution in the test tube. Tubes were dried at 60° C. overnight before use. After the blood sample was collected at the last time point, the rats were sacrificed after ether anesthesia.
Immediately after the collection of the blood sample, the test tube was gently inverted at least 5 times to ensure sufficient mixing and then placed on ice. The blood sample was centrifuged at 5000 rpm at 4° C. for 5 minutes to separate the plasma from the red blood cells. 100 μL of plasma was aspirated into a clean plastic centrifuge tube with a pipette, marking with the name of the compound and time point. Plasma was stored at −80° C. prior to analysis. The concentration of the compound of the present disclosure in plasma was determined by LC-MS/MS. The pharmacokinetic parameters were calculated based on the blood concentration of the drug for each animal at different time points.

[2] = male, Sprague-Dawley, plasma, IV 3 mg/kg
[3] = male, Sprague-Dawley, plasma, PO 10 mg/kg

TRKA kinase, sequence (P04629 33-796): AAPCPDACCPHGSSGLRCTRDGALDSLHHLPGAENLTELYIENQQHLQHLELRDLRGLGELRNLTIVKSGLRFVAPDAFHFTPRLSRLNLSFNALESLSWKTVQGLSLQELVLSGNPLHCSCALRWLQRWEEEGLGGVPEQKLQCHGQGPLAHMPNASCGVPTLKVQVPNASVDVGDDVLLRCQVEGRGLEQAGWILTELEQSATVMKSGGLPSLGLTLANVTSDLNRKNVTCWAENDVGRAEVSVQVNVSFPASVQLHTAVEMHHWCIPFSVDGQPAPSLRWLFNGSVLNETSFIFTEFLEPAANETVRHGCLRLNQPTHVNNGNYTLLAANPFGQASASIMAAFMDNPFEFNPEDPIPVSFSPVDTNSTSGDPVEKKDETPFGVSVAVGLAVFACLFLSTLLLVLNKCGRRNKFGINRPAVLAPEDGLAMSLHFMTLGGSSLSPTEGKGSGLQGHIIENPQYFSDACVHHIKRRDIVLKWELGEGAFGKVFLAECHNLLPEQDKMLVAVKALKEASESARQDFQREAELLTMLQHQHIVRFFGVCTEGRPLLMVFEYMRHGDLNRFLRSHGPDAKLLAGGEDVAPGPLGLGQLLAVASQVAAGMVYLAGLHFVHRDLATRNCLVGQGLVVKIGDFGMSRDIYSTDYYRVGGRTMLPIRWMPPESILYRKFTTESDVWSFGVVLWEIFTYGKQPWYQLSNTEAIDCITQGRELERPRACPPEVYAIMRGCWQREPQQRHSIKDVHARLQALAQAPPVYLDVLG

IC50 (TRKA kinase): 0.19 nM
IC50 (TRKB kinase): 0.1 nM
IC50 (TRKC kinase): 0.06 nM
AUC(0-t) [1, 2]: 6560 ng·h/mL
Cmax [1, 2]: 2100 ng/mL
Tmax [1, 2]: 0.08 h
half-life [1, 2]: 5.59 h
AUC(0-inf) [1, 2]: 6620 ng·h/mL
MRT inf [1, 2]: 3.44 h
AUC(0-t) [1, 3]: 11500 ng·h/mL
Cmax [1, 3]: 994 ng/mL
Tmax [1, 3]: 2.17 h
half-life [1, 3]: 4.84 h
bioavailability ([1]; male, Sprague-Dawley, plasma, PO 10 mg/kg vs IV 3 mg/kg): 52.7%
AUC(0-inf) [1, 3]: 12900 ng·h/mL
MRT inf [1, 3]: 7.37 h
Cl_pred (L/kg) ([1]; IV 3 mg/kg): 0.45
Vz_pred ([1]; IV 3 mg/kg): 2.67 L/kg
Cl_pred (L/kg) ([1]; PO 10 mg/kg): 0.83
Vz_pred ([1]; PO 10 mg/kg): 6.70 L/kg
SMILES: C[C@H]1CC(=O)Nc2cnn3ccc(nc23)N[C@H](C)c2cc(F)ccc2O1 [Compound T-2-A, (7S,13R)-11-fluoro-7,13-dimethyl-6,7,13,14-tetrahydro-1,15-ethenopyrazolo[4,3-f][1,4,8,10]benzoxatriazacyclotiidecin-5(6H)-one]
IC50 (KM12 cell line): 1.6 nM
